Measurements taken from patent US20260130933A1, “PHARMACEUTICAL COMPOSITION FOR PREVENTION OR TREATMENT OF NEPHROPATHY AND/OR DIABETES MELLITUS, COMPRISING ENAVOGLIFLOZIN” (DAEWOONG PHARMACEUTICAL CO., LTD., priority 2022, published 2026).

Assay: Example 2: phase 3 trial, enavogliflozin 0.3 mg vs dapagliflozin 10 mg once a day for 24 weeks added to metformin in patients with type 2 diabetes (same efficacy, exploratory and safety endpoints)
Type: in vivo, human
Protocol: Subjects who met the inclusion/exclusion criteria were administered a placebo of the clinical trial drug under single-blind (subject blinding) conditions during a 2-week run-in period while continuing to receive metformin. […] The randomized subjects were administered two tablets of the clinical trial drug for each administration group once a day, and then visited the institution at weeks 6, 12, 18, and 24 during the 24-week administration period to conduct efficacy and safety evaluations.
• 1. Change in HbA1c at week 24 after administration of clinical trial drug compared to Visit 2 (randomization)
• 1. Change in HbA1c at each time point of weeks 6, 12, and 18 after administration of clinical trial drug compared to Visit 2 (randomization) • 2. Change in FPG at each time point of weeks 6, 12, 18, and 24 after administration of clinical trial drug compared to Visit 2 (randomization) • 3. Proportion of subjects achieving HbA1c<7% at each time point of weeks 6, 12, 18, and 24 after administration of clinical trial drug • 4. Proportion of subjects achieving HbA1c<6.5% at each time point of weeks 6, 12, 18, and 24 after administration of clinical trial drug • 5. Proportion of subjects achieving therapeutic response (HbA1c change (HbA1c at Visit 2-HbA1c at each evaluation time point)>0.5% or HbA1c<7% at each evaluation time point compared to Visit 2 (randomization)) at each time point of weeks 6, 12, 18 and 24 after administration of clinical trial drug
• 1. Change in fasting c-peptide at each time point of weeks 6, 12, 18, and 24 after administration of clinical trial drug compared to Visit 2 (randomization) • 2. Change in body weight at each time point of weeks 6, 12, 18, and 24 after administration of clinical trial drug compared to Visit 2 (randomization) • 3. Change in fasting lipid concentration (total cholesterol, LDL-C, HDL-C, and triglycerides) at each time point of weeks 6, 12, 18, and 24 after administration of clinical trial drug compared to Visit 2 (randomization) • 4. Changes in systolic or diastolic blood pressure at each time point of weeks 6, 12, 18, and 24 after administration of clinical trial drug compared to Visit 2 (randomization) • 5. Changes in β-cell function and insulin resistance measured by HOMA-β and HOMA-IR at each time point of weeks 6, 12, 18, and 24 after administration of clinical trial drug compared to Visit 2 (randomization) • 6. Changes in renal function-related indicators (UACR, UGCR) measured by UACR at each time point of weeks 6, 12, 18, and 24 after administration of clinical trial drug compared to Visit 2 (randomization) • 7. Changes in obesity-related indicators (adiponectin, leptin) at each time point of weeks 6, 12, 18, and 24 after administration of clinical trial drug compared to Visit 2 (randomization)

[1] = Baseline, modified per-protocol set 1, enavogliflozin 0.3 mg, dapagliflozin 10 mg
[2] = Baseline, per-protocol set, enavogliflozin 0.3 mg, dapagliflozin 10 mg

SMILES: CCOc1ccc(Cc2cc([C@@H]3O[C@H](CO)[C@@H](O)[C@H](O)[C@H]3O)ccc2Cl)cc1 [Dapagliflozin, reference compound]
- Incidence of serious adverse drug reactions (24 weeks): 7 case
- Adiponectin, Mean (SD) (Baseline, PPS): 6.6 µg/mL
- Adiponectin, Median (Baseline, PPS): 5.94 µg/mL
- HOMA-IR, Mean (SD) (Baseline, PPS): 3.85
- HOMA-IR, Median (Baseline, PPS): 3.05
- HOMA-β, Mean (SD) (Baseline, PPS): 44.44
- HOMA-β, Median (Baseline, PPS): 38.75
- Leptin, Mean (SD) (Baseline, PPS): 11.76 ng/mL
- Leptin, Median (Baseline, PPS): 8.32 ng/mL
- UACR, Mean (SD) (Baseline, PPS): 57420 mg/kg
- UACR, Median (Baseline, PPS): 15.50 g/kg
- UGCR, Mean (SD) (Baseline, PPS): 1.83 mg/mg
- UGCR, Median (Baseline, PPS): 0.15 mg/mg
- HDL-C, Mean (SD) (Baseline, mPPS1): 46.90(9.17) mg/dL
- HDL-C, Median (Baseline, mPPS1): 46.00 mg/dL
- LDL-C, Mean (SD) (Baseline, mPPS1): 76.16(26.27) mg/dL
- LDL-C, Median (Baseline, mPPS1): 75.00 mg/dL
- Triglycerides, Mean (SD) (Baseline, mPPS1): 132.92(75.63) mg/dL
- Triglycerides, Median (Baseline, mPPS1): 115.00 mg/dL
- Diastolic blood pressure, Mean (SD) (Baseline, mPPS2): 75.92 mmHg
- Diastolic blood pressure, Median (Baseline, mPPS2): 75.00 mmHg
- Systolic blood pressure, Mean (SD) (Baseline, mPPS2): 127.44(14.12) mmHg
- Systolic blood pressure, Median (Baseline, mPPS2): 127.00 mmHg
- fasting Total cholesterol, Mean (SD) [1]: 137.87(26.64) mg/dL
- fasting Total cholesterol, Median [1]: 139.00 mg/dL
- FPG, Mean (SD) [2]: 149.33 mg/dL
- FPG, Median [2]: 142.00 mg/dL
- HbA1c, Mean (SD) [2]: 7.68%
- HbA1c, Median [2]: 7.49%
- body weight, Mean (SD) [2]: 70.52(11.81) kg
- body weight, Median [2]: 69.70 kg
- fasting c-peptide, Mean (SD) [2]: 0.74(0.23) ng/mL
- fasting c-peptide, Median [2]: 0.71 ng/mL
- Adiponectin change from baseline, ANCOVA LS mean (SE) (Week 6, PPS): 0.8 µg/mL
- Adiponectin change from baseline, Mean (SD) (Week 6, PPS): 0.77 µg/mL
- Adiponectin change from baseline, Median (Week 6, PPS): 0.51 ng/mL
- Adiponectin, Mean (SD) (Week 6, PPS): 7.4 µg/mL
- Adiponectin, Median (Week 6, PPS): 6.36 µg/mL
- HOMA-IR change from baseline, ANCOVA LS mean (SE) (Week 6, PPS): −1.31
- HOMA-IR change from baseline, Mean (SD) (Week 6, PPS): −1.46
- HOMA-IR change from baseline, Median (Week 6, PPS): −1.03
- HOMA-IR, Mean (SD) (Week 6, PPS): 2.34
- HOMA-IR, Median (Week 6, PPS): 2.07
- HOMA-β change from baseline, ANCOVA LS mean (SE) (Week 6, PPS): −1.79
- HOMA-β change from baseline, Mean (SD) (Week 6, PPS): −2.83
- HOMA-β change from baseline, Median (Week 6, PPS): 1.10
- HOMA-β, Mean (SD) (Week 6, PPS): 41.10
- HOMA-β, Median (Week 6, PPS): 42.20
- Leptin change from baseline, ANCOVA LS mean (SE) (Week 6, PPS): -1.62 ng/mL
- Leptin change from baseline, Mean (SD) (Week 6, PPS): -1.61 ng/mL
- Leptin change from baseline, Median (Week 6, PPS): -1.46 ng/mL
- Leptin, Mean (SD) (Week 6, PPS): 9.85 ng/mL
- Leptin, Median (Week 6, PPS): 5.51 ng/mL
- UACR change from baseline, ANCOVA LS mean (SE) (Week 6, PPS): 8.13 g/kg
- UACR change from baseline, Mean (SD) (Week 6, PPS): 4490 mg/kg
- UACR change from baseline, Median (Week 6, PPS): 0.00 g/kg
- UACR, Mean (SD) (Week 6, PPS): 62950 mg/kg
- UACR, Median (Week 6, PPS): 13.90 g/kg
- UGCR change from baseline, ANCOVA LS mean (SE) (Week 6, PPS): 50.10 mg/mg
- UGCR change from baseline, Mean (SD) (Week 6, PPS): 47.54 mg/mg
- UGCR change from baseline, Median (Week 6, PPS): 42.30 mg/mg
- UGCR, Mean (SD) (Week 6, PPS): 48.64 mg/mg
- UGCR, Median (Week 6, PPS): 43.08 mg/mg
- HDL-C change from baseline, ANCOVA LS mean (SE) (Week 6, mPPS1): 1.60(0.61) mg/dL
- HDL-C change from baseline, Mean (SD) (Week 6, mPPS1): 1.94(5.62) mg/dL
- HDL-C change from baseline, Median (Week 6, mPPS1): 1.00 mg/dL
- HDL-C, Mean (SD) (Week 6, mPPS1): 48.83(10.55) mg/dL
- HDL-C, Median (Week 6, mPPS1): 48.50 mg/dL
- LDL-C change from baseline, ANCOVA LS mean (SE) (Week 6, mPPS1): 4.20(1.95) mg/dL
- LDL-C change from baseline, Mean (SD) (Week 6, mPPS1): 4.87(19.92) mg/dL
- LDL-C change from baseline, Median (Week 6, mPPS1): 3.00 mg/dL
- LDL-C, Mean (SD) (Week 6, mPPS1): 81.20(28.87) mg/dL
- LDL-C, Median (Week 6, mPPS1): 76.50 mg/dL
- Triglycerides change from baseline, ANCOVA LS mean (SE) (Week 6, mPPS1): −10.14(7.09) mg/dL
- Triglycerides change from baseline, Mean (SD) (Week 6, mPPS1): −11.86(54.93) mg/dL
- Triglycerides change from baseline, Median (Week 6, mPPS1): -2.00 mg/dL
- Triglycerides, Mean (SD) (Week 6, mPPS1): 120.41(53.12) mg/dL
- Triglycerides, Median (Week 6, mPPS1): 104.50 mg/dL
- Diastolic blood pressure change from baseline, ANCOVA LS mean (SE) (Week 6, mPPS2): −1.47 mmHg
- Diastolic blood pressure change from baseline, Mean (SD) (Week 6, mPPS2): −1.10 mmHg
- Diastolic blood pressure change from baseline, Median (Week 6, mPPS2): 0.00 mmHg
- Diastolic blood pressure, Mean (SD) (Week 6, mPPS2): 74.57 mmHg
- Diastolic blood pressure, Median (Week 6, mPPS2): 75.00 mmHg
- Systolic blood pressure change from baseline, ANCOVA LS mean (SE) (Week 6, mPPS2): −2.71(1.06) mmHg
- Systolic blood pressure change from baseline, Mean (SD) (Week 6, mPPS2): −1.98(11.14) mmHg
- Systolic blood pressure change from baseline, Median (Week 6, mPPS2): −1.50 mmHg
- Systolic blood pressure, Mean (SD) (Week 6, mPPS2): 125.24(13.01) mmHg
- Systolic blood pressure, Median (Week 6, mPPS2): 126.00 mmHg
- Adiponectin change from baseline, ANCOVA LS mean (SE) (Week 12, PPS): 1.02 µg/mL
- Adiponectin change from baseline, Mean (SD) (Week 12, PPS): 1.08 µg/mL
- Adiponectin change from baseline, Median (Week 12, PPS): 0.83 ng/mL
- Adiponectin, Mean (SD) (Week 12, PPS): 7.76 µg/mL
- Adiponectin, Median (Week 12, PPS): 6.53 µg/mL
- HOMA-IR change from baseline, ANCOVA LS mean (SE) (Week 12, PPS): −1.60
- HOMA-IR change from baseline, Mean (SD) (Week 12, PPS): −1.74
- HOMA-IR change from baseline, Median (Week 12, PPS): −1.27
- HOMA-IR, Mean (SD) (Week 12, PPS): 2.17
- HOMA-IR, Median (Week 12, PPS): 1.89
- HOMA-β change from baseline, ANCOVA LS mean (SE) (Week 12, PPS): 8.75
- HOMA-β change from baseline, Mean (SD) (Week 12, PPS): 8.97
- HOMA-β change from baseline, Median (Week 12, PPS): 4.55
- HOMA-β, Mean (SD) (Week 12, PPS): 53.77
- HOMA-β, Median (Week 12, PPS): 45.50
